Data published in ChEMBL document CHEMBL3585300, “Inhibition of Cathepsin K: A Novel and Promising Treatment for Osteoporosis” (ACS Med Chem Lett, 2015).

How the values were obtained:
[1] = target: T1, Cathepsin K (Homo sapiens) (UniProt P43235); assay: Inhibition of human cathepsin K incubated for 15 mins using Z-Leu-Arg-AMC substrate by spectrofluorometry
T1 sequence (whole entry): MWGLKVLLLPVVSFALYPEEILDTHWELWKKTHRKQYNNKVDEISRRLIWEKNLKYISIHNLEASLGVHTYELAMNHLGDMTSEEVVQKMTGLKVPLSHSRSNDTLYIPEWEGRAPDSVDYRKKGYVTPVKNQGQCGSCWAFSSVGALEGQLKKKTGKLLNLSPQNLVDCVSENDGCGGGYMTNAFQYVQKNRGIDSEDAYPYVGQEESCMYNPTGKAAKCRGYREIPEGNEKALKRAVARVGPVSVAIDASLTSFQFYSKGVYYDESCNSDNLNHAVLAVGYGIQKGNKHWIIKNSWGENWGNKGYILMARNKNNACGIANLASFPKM

[2] = target: T2, Cathepsin F (Homo sapiens) (UniProt Q9UBX1); assay: Inhibition of human cathepsin F incubated for 15 mins using Z-Phe-Arg-AMC substrate by spectrofluorometry
T2 sequence (whole entry): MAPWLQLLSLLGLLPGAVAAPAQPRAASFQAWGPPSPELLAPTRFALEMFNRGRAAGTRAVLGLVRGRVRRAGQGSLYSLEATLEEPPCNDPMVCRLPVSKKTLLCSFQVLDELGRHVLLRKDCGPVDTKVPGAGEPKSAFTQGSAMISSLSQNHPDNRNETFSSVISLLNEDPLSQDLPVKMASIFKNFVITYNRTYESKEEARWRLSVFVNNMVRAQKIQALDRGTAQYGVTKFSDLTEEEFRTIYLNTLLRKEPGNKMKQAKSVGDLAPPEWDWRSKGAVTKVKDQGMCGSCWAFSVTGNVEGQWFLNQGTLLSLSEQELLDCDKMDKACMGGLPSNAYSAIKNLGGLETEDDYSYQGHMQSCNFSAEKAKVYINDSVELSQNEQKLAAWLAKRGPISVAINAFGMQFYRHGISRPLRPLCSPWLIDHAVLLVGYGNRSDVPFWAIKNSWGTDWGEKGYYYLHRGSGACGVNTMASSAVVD

| SMILES | IP [1] | IP [2] |
| --- | --- | --- |
| C[C@@H](C#N)NC(=O)[C@@H]1C[C@@H](F)CC[C@H]1c1nc(C2(C(F)(F)F)CC2)sc1-c1ccc(N2CCS(=O)(=O)CC2)cc1 | 2.8 nM | 3140 nM |
| N#CC1(NC(=O)[C@@H]2CCCC[C@H]2c2nc(-c3cccc(C4CCOCC4)c3)sc2-c2ccc(N3CCS(=O)(=O)CC3)cc2)CC1 | 1.7 nM | 3330 nM |
| N#CC1(NC(=O)[C@@H]2CCCC[C@H]2c2nc(C3CC(F)(F)C3)sc2-c2ccc(N3CCS(=O)(=O)CC3)cc2)CC1 | 5.8 nM | 1000 nM |
| CC(C)(C)c1nc([C@@H]2CCCC[C@H]2C(=O)NCC#N)c(-c2ccc(N3CCS(=O)(=O)CC3)cc2)s1 | 0.7 nM | 851 nM |
